The values that follow come from patent US12629374B2, “Antimalarial agents” (Merck Sharp & Dohme LLC, priority 2020, dated 2026).

In the first assay the test system is ring stage parasites. Put plainly: Parasite growth potency assay, 72 hours, LDH readout. The class given is cell-based. The settings on record: 72 h, parasite growth measured by LDH assay after 72 hours at 37° C.; 0.7% rings, 2% haematocrit; read-out: EC50. A digest of the protocol:
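Parasite growth was quantified by LDH assay after a −80 °C freeze-thaw. Before that, compound was incubated for 72 h at 37 °C under humidified gas with ring-stage cultures adjusted to 0.7% parasitemia and 2% haematocrit in serum- and albumax-supplemented RPMI-Hepes.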
Broadly, the EC50 is the midpoint of the concentration-response curve. Consider `COCC[C@H](c1cc(F)cc(C(=O)N[C@H]2CC(C)(C)Oc3ccccc32)c1)N1C(=N)NC(C)(C)CC1=O` [Example 173, [1-[1-[3-[[(4S)-2,2-dimethylchroman-4-yl]carbamoyl]-5-fluoro-phenyl]-3-methoxy-propyl]-4,4-dimethyl-6-oxo-hexahydropyrimidin-2-ylidene]ammonium; 2,2,2-trifluoroacetate], for which the half-maximal effective concentration (EC50) was determined as 1 nM.
As for `CCC1(CC)CC(=O)N(Cc2cccc(C(=O)N[C@@H]3c4ccccc4OCC3O)c2)C(=N)N1` (stereo in doubt) [Example 126B, 3-[(4,4-diethyl-2-imino-6-oxo-hexahydropyrimidin-1-yl)methyl]-N-(3-hydroxychroman-4-yl)benzamide], the EC50 amounted to 19.4 nM.
On to `CCC1(CC)CC(=O)N(Cc2cccc(C(=O)N[C@@H]3C[C@@H](C(F)(F)F)Oc4ccccc43)c2)C(=N)N1` (stereo in doubt) [Example 91B, [4,4-diethyl-6-oxo-1-[[3-[[2-(trifluoromethyl)chroman-4-yl]carbamoyl]phenyl]methyl]hexa-hydropyrimidin-2-ylidene]ammonium; 2,2,2-trifluoroacetate], for which the EC50 was found to be 63.7 nM.
On the same count and under the same terms, to `CCC1(CC)CC(=O)N([C@H](C)c2cccc(C(=O)N[C@@H]3c4ccccc4C[C@H]3O)c2)C(=N)N1` [Example 33, [4,4-diethyl-1-[1-[3-[[(1R,2R)-2-hydroxyindan-1-yl]carbamoyl]phenyl]ethyl]-6-oxo-hexahydropyrimidin-2-ylidene]ammonium; 2,2,2-trifluoroacetate] belongs 2.8 nM.
On to `CC1(C)CC(=O)N(Cc2cc(F)cc(C(=O)N[C@@H]3c4ccccc4OC(C)(C)[C@H]3O)c2)C(=N)N1` [Example 183, [1-[[3-fluoro-5-[[(3S,4R)-3-hydroxy-2,2-dimethyl-chroman-4-yl]carbamoyl]phenyl]methyl]-4,4-dimethyl-6-oxo-hexahydropyrimidin-2-ylidene]ammonium; 2,2,2-trifluoroacetate], for which the EC50 was determined as 9.1 nM.
For the compound `CCC1(CC)CC(=O)N(Cc2cccc(C(=O)N[C@H]3CCOc4ccc(Cl)cc43)c2)C(=N)N1` (stereo in doubt) [Example 215B, N-(6-chlorochroman-4-yl)-3-[(4,4-diethyl-2-imino-6-oxo-hexahydropyrimidin-1-yl)methyl]benzamide], the concentration for a half-maximal effect (EC50) turned out to be 3.7 nM.
For the compound `CCC1(CC)CC(=O)N([C@H](c2cncc(F)c2)c2cccc(C(=O)N[C@H]3CCOc4ccccc43)c2)C(=N)N1` [Example 106A, [1-[[3-[[(4S)-chroman-4-yl]carbamoyl]phenyl]-(5-fluoropyridin-1-ium-3-yl)methyl]-4,4-diethyl-6-oxo-hexahydropyrimidin-2-ylidene]ammonium; 2,2,2-trifluoroacetate], the EC50 came out at 0.5 nM.
Still for that read-out and setting: in the case of `CCC[C@@H](c1cccc(C(=O)NC2CC(C)(C)Oc3ccccc32)c1)N1C(=N)NC(CC)(CC)CC1=O` (stereo in doubt) [Example 62B, [1-[1-[3-[(2,2-dimethylchroman-4-yl)carbamoyl]phenyl]butyl]-4,4-diethyl-6-oxo-hexahydropyrimidin-2-ylidene]ammonium; 2,2,2-trifluoroacetate] it was 7.5 nM.

Staying with this assay, now noted: parasite growth measured by LDH assay after 72 hours at 37° C.; 0.7% rings, 2% haematocrit; read-out: EC50.
`CCC1(CC)CC(=O)N([C@H](C)c2cccc(C(=O)N[C@@H]3c4ccccc4C[C@]3(C)O)c2)C(=N)N1` [Example 192B, 3-[(1R)-1-(4,4-diethyl-2-imino-6-oxo-hexahydropyrimidin-1-yl)ethyl]-N-[(1R,2S)-2-hydroxy-2-methyl-indan-1-yl]benzamide]: the 50% effective concentration (EC50) was determined as 2.7 nM.
On to `COCC[C@H](c1cc(F)cc(C(=O)N[C@@H]2c3ccccc3C[C@]2(C)O)c1)N1C(=N)NC(C)(C)CC1=O` [Example 175B, 3-fluoro-N-[(1R,2S)-2-hydroxy-2-methyl-indan-1-yl]-5-[1-(2-imino-4,4-dimethyl-6-oxo-hexahydropyrimidin-1-yl)-3-methoxy-propyl]benzamide], for which the concentration giving a half-maximal response (EC50) is 9.2 nM.
